These results are taken from patent publication EP0050212A1, “5-Substituted-9-cyane-methylene-dithieno(3,4-b:4',3'-e) azepines, process for their preparation and pharmaceutical compositions containing them” (BASF Aktiengesellschaft, priority 1980, dated 1982).

In one experiment the test system is NMRI-Mäusen. The experiment can be described thus: Sedative effect: inhibition of novelty-induced orientation hypermotility (photoelectric measurement). Type of experiment: in vivo. The note with it: for ED50: Mus musculus, 0.5 h, oral, female NMRI mice, measured 30 min after dosing for 30 min, dose giving 50 % decrease of orientation hypermotility, read-out: Sedation ED50; for Sedation R.W.: relative Wirksamkeit = ED50 Vergleichssubstanz / ED50 Beispiel, Clozapin = 1,0. The procedure:
4 bis 8 Gruppen von Jeweils 3 weiblichen NMRI-Mäusen erhalten die Substanzen oral appliziert. Die photoelektrische Bestimmung der durch eine neue Umgebung induzierten Orientierungshypermotilität erfolgt 30 min nach der Applikation der Substanzen für eine Dauer von 30 min. " Als ED50 wird die Dosis bestimmt, welche im Ver- gleich zu Placebo-behandelten Kontrolltieren eine Abnahme der Orientierungshypermotilität um 50 % bewirkt.

The test system of another experiment is Kaninchens. The experiment can be described thus: Muscle-relaxant effect: tonic stretch reflex of the gastrocnemius. The format is in vivo, Kaninchen. The conditions noted are these: for ED50: Oryctolagus cuniculus, rabbit, intravenous, tonic stretch reflex impulse counts relative to pre-dose values, read-out: Muskelrelaxation ED50; for Muskelrelaxation R.W.: relative Wirksamkeit = ED50 Vergleichssubstanz / ED50 Beispiel, Clozapin = 1,0. An excerpt: 2. […] auf der Quantifizierung des tonischen Dehnungsreflexes am Gastocnemius des […] et al., Arch. Pharmacol. exp. Path. 266, 462, 1970). Das Kaninchen wird in einer speziellen Apparatur fixiert, die es erlaubt, die Pfote im Sprunggelenk in […] und reproduzierbarer Weise zu beugen. Durch die Beugung wird in der Wadenmuskulatur ein tonischer Dehnungsreflex ausgelöst. Die […] des Muskels während der Kontraktion wird registriert und die Einzelimpulse gezählt. Die Dehnung (Dauer 5 s) wird in Minutenabständen wiederholt. Nach Erreichen einer konstanten Impulszahl (Kontrollwert) wird die Testsubstanz intravenös appliziert. Die Impulszahlen nach Applikation werden auf die Vorwerte bezogen.

The subject of experiment [1] is Ratten. The experiment can be described thus: Antimethamphetamine effect: suppression of methamphetamine-induced sniffing. The format is in vivo. The note with it: for ED50: ip, 0.5 h, rat, intraperitoneal 30 min before Methamphetamin . HCl 2,5 mg/kg i.v., absence of sniffing within 5 min, probit analysis, read-out: Methamphetaminantagonismus ED50; for Methamphetaminantagonismus R.W.: relative Wirksamkeit = ED50 Vergleichssubstanz / ED50 Beispiel, Clozapin = 1,0.
Protocol: Antimethamphetamin-Wirkung
Methamphetamin . […] Die Prüfsubstanzen werden 30 min vor Methamphetamin intraperitoneal verabfolgt. Kriterium für einen Substanzeffekt ist das Ausbleiben der Schnüffelbewegungen innerhalb eines 5-minütigen Beobachtungszeitraumes nach Meth- amphetamin-Injektion. Als mittlere Hemmdosis (ED50) ' wird mittels Probitanalyse die Dosis ermittelt, die das Symptom bei der Hälfte der Tiere verhindert.

Experiment [2] concerns Ratten. The experiment can be described thus: Central anticholinergic effect: suppression of pilocarpine-induced scratching. Type of experiment: in vivo. The note with it: for ED50: ip, 0.5 h, rat, intraperitoneal 30 min before Pilocarpin . HCl 50 mg/kg i.v., absence of scratching within 2 min, probit analysis, read-out: Zentral-anticholinerge Wirkung ED50; for Zentral-anticholinerge Wirkung R.W.: relative Wirksamkeit = ED50 Vergleichssubstanz / ED50 Beispiel, Clozapin = 1,0. The procedure:
4. Zentral-anticholinerge Wirkung
Zur Prüfung auf zentrale anticholinerge Wirkung wird durch Pilocarpin eine cholinerge Stimulierung ausgelöst. Ratten zeigen nach rascher intravenöser Injektion von Pilocarpin . HC1 (50 mg/kg) alternierende Kratzbewegungen der Hinterpfoten; weitere zentral ausgelöste Symptome sind Kieferbewegungen und Tremor. ALs Zeichen peripherer übererregung können Speichelfluß und Chromodakryorrhoe beobachtet werden (Kreiskott, Arch. exp. Path. Pharmak. 247, 317, 1964). Die Prüfsubstanzen werden 30 min vor Pilocarpin intraperitoneal verabfolgt. Kriterium für einen Substanzeffekt ist das Ausbleiben des Kratzens innerhalb 2 min nach Pilocarpin-Injektion. Für dieses Symptom wird als mittlere Hemmdosis (ED50) mittels Probitanalyse nach Finney diejenige Dosis der Prüfsubstanz ermittelt, welche die Kratzabläufe bei der Hälfte der Tiere unterdrückt.

A value given as a limit tells only on which side of the number the result lay.

With `CN1CCN(C2=Nc3c(csc3Cl)C(=CC#N)c3cscc32)CC1` (mixture of isomers) [Beispiel 2, cis, trans-3-Chlor-9-cyanmethyl en-5-(4-methylpiperazin-1--yl)-dithieno[3.4-b:4'.3'-e]azepin], in the experiment with NMRI-Mäusen, the ED50 (usually the dose at which the effect has come halfway, by size or by number of responders) stood at 9.6 mg/kg and the “Sedation R.W.” value was 0,49. Besides, in the experiment with Kaninchens, the ED50 is 0.08 mg/kg and the “Muskelrelaxation R.W.” value is 0,56.
On to `CN1CCN(C2=Nc3cscc3C(=CC#N)c3cscc32)CC1` [Beispiel 1a, 9-Cyanmethylen-5-(4-methyl-piperazin-1-yl)-dithieno-[3.4-b:4'.3'-e]azepin], for which, in the experiment with NMRI-Mäusen, the 50% effective dose (ED50) stood at 7.4 mg/kg and the “Sedation R.W.” value is listed as 0,64. In addition, in the experiment with Kaninchens, the ED50 is 0.14 mg/kg and the “Muskelrelaxation R.W.” value is recorded as 0,33. Besides, in the experiment with Ratten [1], the ED50 came to 5.1 mg/kg and the “Methamphetaminantagonismus R.W.” value was 7,25. In the experiment with Ratten [2], the median effective dose (ED50) is 2.8 mg/kg and the “Zentral-anticholinerge Wirkung R.W.” value was 1,1.
`CN1CCN(C2=Nc3cscc3/C(=C\C#N)c3cscc32)CC1` [1b trans]: in the experiment on NMRI-Mäusen, the ED50 is above 21.5 mg/kg and the “Sedation R.W.” value is on record as <0,22. For the same compound, in the experiment with Kaninchens, the ED50 is above 1 mg/kg and the “Muskelrelaxation R.W.” value is <0,046. Besides, in the experiment on Ratten [1], the ED50 is 77 mg/kg and the “Methamphetaminantagonismus R.W.” value was 0,48. In the experiment on Ratten [2], the ED50 amounted to 13 mg/kg and the “Zentral-anticholinerge Wirkung R.W.” value is recorded as 0,24.
In the case of `CN1CCN(C2=Nc3cscc3/C(=C/C#N)c3cscc32)CC1` [1b cis], in the experiment with NMRI-Mäusen, the ED50 worked out at 5 mg/kg and the “Sedation R.W.” value is given as 0,94. Also, in the experiment on Kaninchens, the ED50 turned out to be 0.22 mg/kg and the “Muskelrelaxation R.W.” value was 0,21. In the experiment with Ratten [1], the ED50 worked out at 5.5 mg/kg and the “Methamphetaminantagonismus R.W.” value was 6,72. For the same compound, in the experiment on Ratten [2], the ED50 turned out to be 0.6 mg/kg and the “Zentral-anticholinerge Wirkung R.W.” value is 5,2.
In the case of `CN1CCN(C2=Nc3cc(Cl)ccc3Nc3ccccc32)CC1` [Clozapin, reference compound], in the experiment with NMRI-Mäusen, the ED50 worked out at 4.7 mg/kg and the “Sedation R.W.” value is reported as 1,0. The “Muskelrelaxation R.W.” value with Kaninchens is listed as 1,0. For the same compound, in the experiment with Ratten [1], the ED50 amounted to 37 mg/kg and the “Methamphetaminantagonismus R.W.” value is 1,0. For the same compound, in the experiment on Ratten [2], the ED50 came out at 3.1 mg/kg and the “Zentral-anticholinerge Wirkung R.W.” value is recorded as 1,0.
Consider `CCN1CCN(C2=Nc3cscc3C(=CC#N)c3cscc32)CC1` (mixture of isomers) [Beispiel 6, cis, trans-9-Cyanmethylen-5-(4-äthyl-piperazin-1-yl)-di-thieno[3.4-b:4'.3'-elazepin], for which, in the experiment with NMRI-Mäusen, the 50% effective dose (ED50) came out at 10.6 mg/kg and the “Sedation R.W.” value was 0,44. In the experiment with Kaninchens, the median effective dose (ED50) amounted to 0.22 mg/kg and the “Muskelrelaxation R.W.” value is listed as 0,21. For the same compound, in the experiment with Ratten [1], the ED50 was found to be 42 mg/kg and the “Methamphetaminantagonismus R.W.” value was 0,88.
With `CN1CCN(C2=Nc3ccccc3Cc3ccccc32)CC1` [Perlapin, reference compound], in the experiment on NMRI-Mäusen, the ED50 came out at 2.1 mg/kg and the “Sedation R.W.” value is 2,24. For the same compound, in the experiment on Kaninchens, the ED50 turned out to be 0.11 mg/kg and the “Muskelrelaxation R.W.” value is listed as 0,42. Further, in the experiment on Ratten [1], the ED50 came out at 31 mg/kg and the “Methamphetaminantagonismus R.W.” value is listed as 1,2. Besides, in the experiment with Ratten [2], the ED50 worked out at 14 mg/kg and the “Zentral-anticholinerge Wirkung R.W.” value was 0,22.
